From US10597380B2, “Pyridazinone-based broad spectrum anti-influenza inhibitors” (Hoffmann-La Roche Inc., priority 2017, dated 2020)

Tested on: Influenza A/WSN/33-Luciferase virus
Assay: microbe, parasite or virus in culture
Assay type: cell-based
Details: A549, 72 h, luciferase signal three days later, read-out: IC50 antiviral activity (Luciferase reporter assay)

With `CCc1ccc2c(Nc3cccn(C)c3=O)nn(-c3ccc(OC(F)(F)F)cc3)c(=O)c2c1` [Example 82, 7-ethyl-4-[(1-methyl-2-oxo-3-pyridyl)amino]-2-[4-(trifluoromethoxy)phenyl]phthalazin-1-one] as the compound, how does the IC50 read?
Its IC50 is 79 nM.

`C=Cc1ccc2c(=O)n(-c3ccc(OC(F)(F)F)cc3)nc(Nc3cccn(C)c3=O)c2c1` [Example 83, 4-[(1-methyl-2-oxo-3-pyridyl)amino]-2-[4-(trifluoromethoxy)phenyl]-6-vinyl-phthalazin-1-one] was tested. Which IC50 did it give?
Its IC50 is 1490 nM.

For `C=Cc1ccc2c(Nc3cccn(C)c3=O)nn(-c3ccc(OC(F)(F)F)cc3)c(=O)c2c1` [Example 84, 4-[(1-methyl-2-oxo-3-pyridyl)amino]-2-[4-(trifluoromethoxy)phenyl]-7-vinyl-phthalazin-1-one], which IC50 is on record?
The IC50 was 176 nM.

For `CCn1cncc(Nc2nn(-c3ccc(OC(F)(F)F)cc3)c(=O)c3c2CCN(C(C)=O)C3)c1=O` [Example 85, 6-acetyl-1-[(1-ethyl-6-oxo-pyrimidin-5-yl)amino]-3-[4-(trifluoromethoxy)phenyl]-7,8-dihydro-5H-pyrido[3,4-d]pyridazin-4-one], which IC50 is on record?
The IC50 was 56 nM.

For `CCCn1cncc(Nc2nn(-c3ccc(OC(F)(F)F)cc3)c(=O)c3c2CCN(C(C)=O)C3)c1=O` [Example 86, 6-acetyl-1-[(6-oxo-1-propyl-pyrimidin-5-yl)amino]-3-[4-(trifluoromethoxy)phenyl]-7,8-dihydro-5H-pyrido[3,4-d]pyridazin-4-one], which IC50 is on record?
The IC50 was 34 nM.

For `CC(=O)N1CCc2c(Nc3cc(F)cn(C)c3=O)nn(-c3ccc(OC(F)(F)F)cc3)c(=O)c2C1` [Example 87, 6-acetyl-1-[(5-fluoro-1-methyl-2-oxo-3-pyridyl)amino]-3-[4-(trifluoromethoxy)phenyl]-7,8-dihydro-5H-pyrido[3,4-d]pyridazin-4-one], which IC50 is on record?
Its IC50 is 17 nM.

`O=C(Cn1cccc(Nc2nn(-c3ccc(OC(F)(F)F)cc3)c(=O)c3ccccc23)c1=O)N1CCOCC1` [Example 88, 4-[[1-(2-Morpholino-2-oxo-ethyl)-2-oxo-3-pyridyl]amino]-2-[4-(trifluoromethoxy)phenyl]phthalazin-1-one] was tested. Which IC50 did it give?
Its IC50 is 23 nM.

How did the IC50 turn out when `CN(C)C(=O)Cn1cccc(Nc2nn(-c3ccc(OC(F)(F)F)cc3)c(=O)c3ccccc23)c1=O` [Example 89, N,N-dimethyl-2-[2-oxo-3-[[4-oxo-3-[4-(trifluoromethoxy)phenyl]phthalazin-1-yl]amino]-1-pyridyl]acetamide] was run?
The IC50 was 38 nM.

For `CC(C)NC(=O)Cn1cccc(Nc2nn(-c3ccc(OC(F)(F)F)cc3)c(=O)c3ccccc23)c1=O` [Example 90, N-isopropyl-2-[2-oxo-3-[[4-oxo-3-[4-(trifluoromethoxy)phenyl]phthalazin-1-yl]amino]-1-pyridyl]acetamide], which IC50 is on record?
Its IC50 is 162 nM.

For `CNC(=O)Cn1cccc(Nc2nn(-c3ccc(OC(F)(F)F)cc3)c(=O)c3ccccc23)c1=O` [Example 91, N-methyl-2-[2-oxo-3-[[4-oxo-3-[4-(trifluoromethoxy)phenyl]phthalazin-1-yl]amino]-1-pyridyl]acetamide], which IC50 is on record?
Its IC50 is 41 nM.

For `O=C(Cn1cccc(Nc2nn(-c3ccc(OC(F)(F)F)cc3)c(=O)c3ccccc23)c1=O)NCCO` [Example 92, N-(2-hydroxyethyl)-2-[2-oxo-3-[[4-oxo-3-[4-(trifluoromethoxy)phenyl]phthalazin-1-yl]amino]-1-pyridyl]acetamide], which IC50 is on record?
Its IC50 is 178 nM.

Which IC50 does the source give for `CN(C)CCNC(=O)Cn1cccc(Nc2nn(-c3ccc(OC(F)(F)F)cc3)c(=O)c3ccccc23)c1=O` [Example 93, N-[2-(dimethylamino)ethyl]-2-[2-oxo-3-[[4-oxo-3-[4-(trifluoromethoxy)phenyl]phthalazin-1-yl]amino]-1-pyridyl]acetamide] here?
The IC50 was 166 nM.

With `COCCCNC(=O)Cn1cccc(Nc2nn(-c3ccc(OC(F)(F)F)cc3)c(=O)c3ccccc23)c1=O` [Example 94, N-(3-methoxypropyl)-2-[2-oxo-3-[[4-oxo-3-[4-(trifluoromethoxy)phenyl]phthalazin-1-yl]amino]-1-pyridyl]acetamide] as the compound, how does the IC50 read?
Its IC50 is 45 nM.

How did the IC50 turn out when `CNC(=O)CCn1cccc(Nc2nn(-c3ccc(OC(F)(F)F)cc3)c(=O)c3ccccc23)c1=O` [Example 95, N-methyl-3-[2-oxo-3-[[4-oxo-3-[4-(trifluoromethoxy)phenyl]phthalazin-1-yl]amino]-1-pyridyl]propanamide] was run?
Its IC50 is 102 nM.

With `CN(C)C(=O)CCn1cccc(Nc2nn(-c3ccc(OC(F)(F)F)cc3)c(=O)c3ccccc23)c1=O` [Example 96, N,N-dimethyl-3-[2-oxo-3-[[4-oxo-3-[4-(trifluoromethoxy)phenyl]phthalazin-1-yl]amino]-1-pyridyl]propanamide] as the compound, how does the IC50 read?
Its IC50 is 42 nM.

`CNC(=O)CCCn1cccc(Nc2nn(-c3ccc(OC(F)(F)F)cc3)c(=O)c3ccccc23)c1=O` [Example 97, N-methyl-4-[2-oxo-3-[[4-oxo-3-[4-(trifluoromethoxy)phenyl]phthalazin-1-yl]amino]-1-pyridyl]butanamide] was tested. Which IC50 did it give?
The IC50 was 9 nM.

For `CN(C)C(=O)CCCn1cccc(Nc2nn(-c3ccc(OC(F)(F)F)cc3)c(=O)c3ccccc23)c1=O` [Example 98, N,N-dimethyl-4-[2-oxo-3-[[4-oxo-3-[4-(trifluoromethoxy)phenyl]phthalazin-1-yl]amino]-1-pyridyl]butanamide], which IC50 is on record?
The IC50 was 10 nM.

`CNC(=O)C(C)(C)Cn1cccc(Nc2nn(-c3ccc(OC(F)(F)F)cc3)c(=O)c3ccccc23)c1=O` [Example 99, N,2,2-trimethyl-3-[2-oxo-3-[[4-oxo-3-[4-(trifluoromethoxy)phenyl]phthalazin-1-yl]amino]-1-pyridyl]propanamide] was tested. Which IC50 did it give?
The IC50 was 291 nM.

For `CN(C)C(=O)C(C)(C)Cn1cccc(Nc2nn(-c3ccc(OC(F)(F)F)cc3)c(=O)c3ccccc23)c1=O` [Example 100, N,N,2,2-tetramethyl-3-[2-oxo-3-[[4-oxo-3-[4-(trifluoromethoxy)phenyl]phthalazin-1-yl]amino]-1-pyridyl]propanamide], which IC50 is on record?
Its IC50 is 36 nM.

With `CC(C)(Cn1cccc(Nc2nn(-c3ccc(OC(F)(F)F)cc3)c(=O)c3ccccc23)c1=O)C(N)=O` [Example 101, 2,2-dimethyl-3-[2-oxo-3-[[4-oxo-3-[4-(trifluoromethoxy)phenyl]phthalazin-1-yl]amino]-1-pyridyl]propanamide] as the compound, how does the IC50 read?
Its IC50 is 109 nM.

Which IC50 does the source give for `CNC(=O)COCCn1cccc(Nc2nn(-c3ccc(OC(F)(F)F)cc3)c(=O)c3ccccc23)c1=O` [Example 102, N-methyl-2-[2-[2-oxo-3-[[4-oxo-3-[4-(trifluoromethoxy)phenyl]phthalazin-1-yl]amino]-1-pyridyl]ethoxy]acetamide] here?
Its IC50 is 37 nM.

Which IC50 does the source give for `CN(C)C(=O)COCCn1cccc(Nc2nn(-c3ccc(OC(F)(F)F)cc3)c(=O)c3ccccc23)c1=O` [Example 103, N,N-dimethyl-2-[2-[2-oxo-3-[[4-oxo-3-[4-(trifluoromethoxy)phenyl]phthalazin-1-yl]amino]-1-pyridyl]ethoxy]acetamide] here?
Its IC50 is 38 nM.

Which IC50 does the source give for `CNC(=O)Cn1cccc(Nc2nn(-c3ccc(OC(F)(F)F)cc3)c(=O)c3c2CCCC3)c1=O` [Example 104, N-methyl-2-[2-oxo-3-[[4-oxo-3-[4-(trifluoromethoxy)phenyl]-5,6,7,8-tetrahydrophthalazin-1-yl]amino]-1-pyridyl]acetamide] here?
The IC50 was 39 nM.

`CNC(=O)CCCn1cccc(Nc2nn(-c3ccc(OC(F)(F)F)cc3)c(=O)c3c2CCC3)c1=O` [Example 105, N-methyl-4-[2-oxo-3-[[4-oxo-3-[4-(trifluoromethoxy)phenyl]-6,7-dihydro-5H-cyclopenta[d]pyridazin-1-yl]amino]-1-pyridyl]butanamide] was tested. Which IC50 did it give?
Its IC50 is 15 nM.

`CN(C)C(=O)CCCn1cccc(Nc2nn(-c3ccc(OC(F)(F)F)cc3)c(=O)c3c2CCC3)c1=O` [Example 106, N,N-dimethyl-4-[2-oxo-3-[[4-oxo-3-[4-(trifluoromethoxy)phenyl]-6,7-dihydro-5H-cyclopenta[d]pyridazin-1-yl]amino]-1-pyridyl]butanamide] was tested. Which IC50 did it give?
The IC50 was 14 nM.

For `CNC(=O)COCCn1cccc(Nc2nn(-c3ccc(OC(F)(F)F)cc3)c(=O)c3c2CCC3)c1=O` [Example 107, N-methyl-2-[2-[2-oxo-3-[[4-oxo-3-[4-(trifluoromethoxy)phenyl]-6,7-dihydro-5H-cyclopenta[d]pyridazin-1-yl]amino]-1-pyridyl]ethoxy]acetamide], which IC50 is on record?
Its IC50 is 49 nM.

How did the IC50 turn out when `CN(C)C(=O)COCCn1cccc(Nc2nn(-c3ccc(OC(F)(F)F)cc3)c(=O)c3c2CCC3)c1=O` [Example 108, N,N-dimethyl-2-[2-[2-oxo-3-[[4-oxo-3-[4-(trifluoromethoxy)phenyl]-6,7-dihydro-5H-cyclopenta[d]pyridazin-1-yl]amino]-1-pyridyl]ethoxy]acetamide] was run?
The IC50 was 29 nM.

With `O=C(O)CCn1cccc(Nc2nn(-c3ccc(OC(F)(F)F)cc3)c(=O)c3ccccc23)c1=O` [Example 109, 3-[2-Oxo-3-[[4-oxo-3-[4-(trifluoromethoxy)phenyl]phthalazin-1-yl]amino]-1-pyridyl]propanoic acid] as the compound, how does the IC50 read?
The IC50 was 842 nM.

`O=C(O)CCCn1cccc(Nc2nn(-c3ccc(OC(F)(F)F)cc3)c(=O)c3ccccc23)c1=O` [Example 110, 4-[2-oxo-3-[[4-oxo-3-[4-(trifluoromethoxy)phenyl]phthalazin-1-yl]amino]-1-pyridyl]butanoic acid] was tested. Which IC50 did it give?
The IC50 was 482 nM.

Which IC50 does the source give for `CC(C)(Cn1cccc(Nc2nn(-c3ccc(OC(F)(F)F)cc3)c(=O)c3ccccc23)c1=O)C(=O)O` [Example 111, 2,2-dimethyl-3-[2-oxo-3-[[4-oxo-3-[4-(trifluoromethoxy)phenyl]phthalazin-1-yl]amino]-1-pyridyl]propanoic acid] here?
The IC50 was 1510 nM.

For `O=C(O)COCCn1cccc(Nc2nn(-c3ccc(OC(F)(F)F)cc3)c(=O)c3ccccc23)c1=O` [Example 112, 2-[2-[2-oxo-3-[[4-oxo-3-[4-(trifluoromethoxy)phenyl]phthalazin-1-yl]amino]-1-pyridyl]ethoxy]acetic acid], which IC50 is on record?
The IC50 was 2990 nM.

How did the IC50 turn out when `CN(CCn1cccc(Nc2nn(-c3ccc(OC(F)(F)F)cc3)c(=O)c3ccccc23)c1=O)CC(=O)O` [Example 113, 2-[methyl-[2-[2-oxo-3-[[4-oxo-3-[4-(trifluoromethoxy)phenyl]phthalazin-1-yl]amino]-1-pyridyl]ethyl]amino]acetic acid] was run?
Its IC50 is 161 nM.

With `O=C(O)C1CCCN1CCn1cccc(Nc2nn(-c3ccc(OC(F)(F)F)cc3)c(=O)c3ccccc23)c1=O` (stereo not drawn) [Example 114, 1-[2-[2-oxo-3-[[4-oxo-3-[4-(trifluoromethoxy)phenyl]phthalazin-1-yl]amino]-1-pyridyl]ethyl]pyrrolidine-2-carboxylic acid] as the compound, how does the IC50 read?
The IC50 was 110 nM.
